Measured values published in PubChem BioAssay AID602161 (Broad Institute, 2011).
Results filed as inconclusive are left out.

Target: Heat shock protein HSP 90-alpha (Homo sapiens) (UniProt P07900)
Assay: human Hsp90 inhibitors in yeast GR reporter, dose response, selectivity assay for Plasmodium Hsp90 inhibitor project, S. cerevisiae, beta-galactosidase luminescence, dry powder (AID 602161)
Details: S. cerevisiae HsHsp90 GR reporter, beta-gal luminescence

Q: `O=S(=O)(/C=C/c1ccccc1)NC1CCCCCCC1` was tested. Which AC50 did it give?
A: 9.6 µM

Q: `O=S(=O)(NC1CCCCCC1)c1ccc(Br)s1` was tested. Which AC50 did it give?
A: 2.6 µM

Q: `COc1ccc2c(c1)C=C(C(=O)NCc1ccc(Cl)cc1)CO2` was tested. Which AC50 did it give?
A: 9.79 µM

Q: With `O=C(CSCC(=O)N1CCCCC1)Nc1nc(-c2ccc(Cl)s2)cs1` as the molecule, how does the AC50 read?
A: 9.72 µM

Q: With `CCOc1cc(S(=O)(=O)NC2CCCCCC2)ccc1F` as the molecule, how does the AC50 read?
A: 22.2 µM

Q: How did the AC50 turn out when `Cc1ccc(OCc2n[nH]c(=S)n2C2CCCCC2)cc1` was run?
A: 12.6 µM
